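Five concentrations, 48 hours, 96-well plates. Definition used: TGI = concentration required for complete inhibition of growth.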 *1 amine or outer side, *2 acyl side, *3 side chain or, on linkers, in order; H or OH if unused. Where a SMILES comes first, the peptide text is derived from it. Bridges are numbered along the chain shown (N, C = ends). [ ]: non-standard residue; d: D form. The star is where a group is joined. X34 = O=C(C(CCCCNO[*:3])N[*:1])[*:2]; Fmoc = O=C(OCC1c2ccccc2-c2ccccc21)*
Experiments:
Test in all cases: growth of human tumour cells (NCI), 48 h
DMS 114 small cell lung = tested on: DMS 114 small cell lung
OVCAR-4 ovarian = tested on: OVCAR-4 ovarian
SK-OV-3 ovarian = tested on: SK-OV-3 ovarian
M19-MEL melanoma = tested on: M19-MEL melanoma
KM20L2 colon = tested on: KM20L2 colon
XF 498 CNS = tested on: XF 498 CNS
SK-MEL-2 melanoma = tested on: SK-MEL-2 melanoma
DLD-1 colon = tested on: DLD-1 colon
IGROV1 ovarian = tested on: IGROV1 ovarian
UO-31 renal = tested on: UO-31 renal
UACC-62 melanoma = tested on: UACC-62 melanoma
SNB-78 CNS = tested on: SNB-78 CNS
LXFL 529 NSCLC = tested on: LXFL 529 NSCLC
DMS 273 small cell lung = tested on: DMS 273 small cell lung
NCI/ADR-RES ovarian = tested on: NCI/ADR-RES ovarian
HOP-18 NSCLC = tested on: HOP-18 NSCLC
PC-3 prostate = tested on: PC-3 prostate
RXF-631 renal = tested on: RXF-631 renal

SMILES | TGI (DMS 114 small cell lung) [µM] | TGI (OVCAR-4 ovarian) [µM] | TGI (SK-OV-3 ovarian) [µM] | TGI (M19-MEL melanoma) [µM] | TGI (KM20L2 colon) [µM] | TGI (XF 498 CNS) [µM] | TGI (SK-MEL-2 melanoma) [µM] | TGI (DLD-1 colon) [µM] | TGI (IGROV1 ovarian) [µM] | TGI (UO-31 renal) [µM] | TGI (UACC-62 melanoma) [µM] | TGI (SNB-78 CNS) [µM] | TGI (LXFL 529 NSCLC) [µM] | TGI (DMS 273 small cell lung) [µM] | TGI (NCI/ADR-RES ovarian) [µM] | TGI (HOP-18 NSCLC) [µM] | TGI (PC-3 prostate) [µM] | TGI (RXF-631 renal) [µM]
C=CCN1/C(=C2\SC(=S)N(c3ccc(C)cc3)C2=O)Sc2c1nc[nH]c2=O | > 100 | > 100 | > 100 | > 100 | > 100 | > 100 | > 100 | > 100 | > 100 | > 100 | > 100 | > 100 | > 100 | > 100 |  |  |  | 
C[N+](C)(C)CC(=O)N/N=C(\C(=O)NC1=C(Cl)C(=O)c2ccccc2C1=O)C(C#N)c1nc(-c2ccc([N+](=O)[O-])cc2)cs1 (centres undefined) | 9.62 | 23.3 | 41.8 | 2.2 | 42.5 | 21.1 | 30.9 | 29.5 | 18.4 | 31 | 9.27 | 48.2 | 21.4 | 33.7 | > 57.5 | 18 | 56.8 | 
COc1ccc(NC(=O)C(C)Oc2ccc(OCC3CCCCC3)cc2)cc1 (centres undefined) | > 100 | > 100 | > 100 | > 100 |  | > 100 | > 100 | > 100 | > 100 | > 100 | > 100 | > 100 | > 100 | > 100 |  |  |  | 
Clc1ccc(C[P+]2(c3ccccc3)CCCCC2)cc1 | > 100 |  | > 100 | > 100 | > 100 | 86.7 | > 100 | > 100 | > 100 | > 100 | > 100 | > 100 | > 100 | > 100 |  | > 100 |  | 
COc1nc2c(c(=O)n1C)N=C(c1ccccc1)[C@H](C(CC(=O)c1ccccc1)c1ccccc1)C(c1ccccc1)N2 (some centres undefined) |  | > 100 | > 100 |  |  |  | > 100 |  | > 100 | > 100 | > 100 |  |  |  | > 100 |  | > 100 | 
CCN(CC)Cc1ccc(C(=S)Nc2ccc(C)cc2)s1 |  | 71 | 31.1 |  |  |  | 30.2 |  | 26.2 | 28.9 | 28.1 |  |  |  | 51.9 |  | 31.3 | 
NC(=O)CNC(=O)C1CCCN1C(=O)C1CCCCNOC(=O)CCC(NC(=O)OCC2c3ccccc3-c3ccccc32)C(=O)NC(Cc2c[nH]c3ccccc23)C(=O)N1 (centres undefined) (Fmoc-EW[X34]PG-NH2; ester 1-3; configuration not given here) |  | > 100 | > 100 |  |  |  | > 100 |  | > 100 | > 100 | > 100 |  |  |  | > 100 |  | > 100 | 
COC(=O)C(Br)C1CCc2ccccc21 (centres undefined) | > 100 | > 100 | > 100 | > 100 | > 100 |  |  | > 100 | > 100 | > 100 | > 100 |  | > 100 | > 100 |  | > 100 |  | > 100
CCN(CC)c1ccc2nc3ccc(N=Nc4c(O)ccc5ccccc45)cc3[n+](-c3ccccc3)c2c1 |  | > 100 | > 100 |  |  |  | > 100 |  | > 100 | > 100 | > 100 |  |  |  | > 100 |  | > 100 | 
C/C=C1\CN2CCc3c([nH]c4ccccc34)C2C=C1CCO (centres undefined) | > 340 |  | > 340 | > 340 | > 340 | > 340 | > 340 | > 340 | > 340 |  | > 340 |  | > 340 | > 340 |  |  |  | > 340
OC(c1ccc2c(c1)OCO2)c1ccc2c(c1)OCO2 |  | > 100 | > 100 |  |  |  | > 100 |  | > 100 | > 100 | > 100 |  |  |  | > 100 |  | > 100 | 
CSc1nc2c(c(N3CCOCC3)n1)C(O)n1c(nc3ccccc31)S2 (centres undefined) |  | > 100 | > 100 |  |  |  | > 100 |  | > 100 | > 100 | > 100 |  |  |  | > 100 |  | > 100 | 
CN(C)c1snc2c1c(=O)n(C)c(=O)n2C | > 100 | > 100 | > 100 | > 100 | > 100 | > 100 | > 100 | > 100 | > 100 | > 100 | > 100 |  | > 100 | > 100 |  | > 100 |  | > 100
CC(NC(=O)c1ccc(NP(=O)(OCc2ccc([N+](=O)[O-])o2)N(C)CCCCCl)cc1)c1ccc(OCC2CCCCC2)c(C(N)=O)c1 (centres undefined) |  | 49.6 | 78.3 |  |  |  | 49.3 |  | 45.9 | > 100 | 26.4 |  |  |  | > 100 |  | > 100 | 
